Test results published in patent US20220323406A1, “METHODS AND COMPOSITIONS FOR DIFFERENTIATING STEM CELLS” (Massachusetts Institute of Technology, priority 2019, published 2022).
Like-named read-outs stand apart in the source and are kept apart here.

How the values were obtained:
[1] = test system: ENR+CD organoids (ISC to Paneth cell differentiation); test: Primary screen: basal (non-stimulated) lysozyme secretion LYZ.NS, 2.5-D 384-well ENR+CD organoid differentiation; assay type: cell-based, mouse
Description: (§1) High-throughput screening.

[2] = test system: ENR+CD organoids (ISC to Paneth cell differentiation); test: Primary screen: CCh-stimulated lysozyme secretion LYZ.S, 2.5-D 384-well ENR+CD organoid differentiation; assay type: cell-based, mouse; conditions: primary screen
Description: as §1

ENR+CD organoids [3] = conditions: primary screen; for Z.CTG: standard z score
[4] = test system: ENR+CD organoids (ISC to Paneth cell differentiation); test: Secondary (validation) screen: LYZ.NS basal lysozyme secretion, 2.5-D 384-well ENR+CD organoids; assay type: cell-based, mouse; conditions: 6-day ENR+CD, vs ENR+CD+DMSO
Protocol: (§2) Drugs were tested at a narrowed dose range around each treatment's identified optimal dose from the primary screen (4× below, 2× above and below).
as §1
(§3) Secondary lysozyme secretion assay screen. Confirmatory secondary screening with primary hits was performed using the above 384-well plate method. The screen was conducted with 4-plate replicates with a base media of ENR+CD. Media was supplemented with compound at day 0 and day 3 (n=8 well replicates per dose) at four different doses: two-fold above, two-fold below, and four-fold below the optimal final dose for each respective treatment. Additionally, each plate carried a large number of ENR+DMSO or ENR+CD+DMSO (vehicle) control wells (n=100 for ATP, and n=25 for LYZ.NS and LYZ.S) for robust normalization. ATP, non-stimulated lysozyme activity and CCh-stimulated lysozyme activity was again measured and the collected data was again processed in a custom R-script, per primary screen with slight modification. Values were log10 transformed, and a plate-wise FC was calculated for each well based on the median value of ENR+CD+DMSO (vehicle) control wells to normalize plate to plate variability.

[5] = test system: ENR+CD organoids (ISC to Paneth cell differentiation); test: Secondary (validation) screen: LYZ.S CCh-stimulated lysozyme secretion, 2.5-D 384-well ENR+CD organoids; assay type: cell-based, mouse; conditions: 6-day ENR+CD, vs ENR+CD+DMSO
Protocol: as §2, §1, §3

ENR+CD organoids [6] = test: Secondary (validation) screen: ATP (CTG) assay, 2.5-D 384-well ENR+CD organoids; assay type: cell-based, mouse; conditions: 6-day ENR+CD, vs ENR+CD+DMSO
Protocol: as §2, §1, §3

ENR+CD organoids [7] = test: Primary screen: ATP (CellTiter-Glo 3D, CTG) cell number/viability, 2.5-D 384-well ENR+CD organoids; conditions: primary screen, FC relative to plate median;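 also: compounds given at plating and again on day 3 over a 6-day differentiation from ENR+CV stem-cell-enriched precursors, ATP measured on day 6, plate median as control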

Q: Which Dose.FC.LYZ.NS ([1]; primary screen, dose 0.08 uM) does the source give for C=C1C[C@@H]2[C@H](CC[C@]3(C)C(=O)CC[C@@H]23)[C@@]2(C)C=CC(=O)C=C12 [Exemestane] here?
A: 0.051 log2 fold change

Q: What about the Dose.FC.LYZ.NS ([1]; primary screen, dose 0.40 uM) of the same molecule?
A: 0.079 log2 fold change

Q: What about the Dose.FC.LYZ.NS ([1]; primary screen, dose 2.00 uM) of the same molecule?
A: 0.001 log2 fold change

Q: What about the Dose.FC.LYZ.NS ([1]; primary screen, dose 10.00 uM) of the same molecule?
A: 0.007 log2 fold change

Q: And the Z.LYZ.NS ([1]; primary screen, standard z score, dose 0.08 uM)?
A: 0.447

Q: What about the Z.LYZ.NS ([1]; primary screen, standard z score, dose 0.40 uM) of the same molecule?
A: 0.687

Q: And the Z.LYZ.NS ([1]; primary screen, standard z score, dose 2.00 uM)?
A: 0.012

Q: What about the Z.LYZ.NS ([1]; primary screen, standard z score, dose 10.00 uM) of the same molecule?
A: 0.060

Q: What about the Dose.FC.LYZ.S ([2]; dose 0.08 uM) of the same molecule?
A: 0.062 log2 fold change

Q: And the Dose.FC.LYZ.S ([2]; dose 0.40 uM)?
A: 0.035 log2 fold change

Q: And the Dose.FC.LYZ.S ([2]; dose 2.00 uM)?
A: 0.058 log2 fold change

Q: What about the Dose.FC.LYZ.S ([2]; dose 10.00 uM) of the same molecule?
A: −0.005 log2 fold change

Q: And the Dose.FC.CTG (ENR+CD organoids [3]; dose 0.08 uM)?
A: −0.046 log2 fold change

Q: And the Dose.FC.CTG (ENR+CD organoids [3]; dose 0.40 uM)?
A: −0.407 log2 fold change

Q: And the Dose.FC.CTG (ENR+CD organoids [3]; dose 2.00 uM)?
A: 0.170 log2 fold change

Q: What about the Dose.FC.CTG (ENR+CD organoids [3]; dose 10.00 uM) of the same molecule?
A: −0.167 log2 fold change

Q: What about the Z.CTG (ENR+CD organoids [3]; dose 0.08 uM) of the same molecule?
A: −0.110

Q: And the Z.CTG (ENR+CD organoids [3]; dose 0.40 uM)?
A: −0.973

Q: And the Z.CTG (ENR+CD organoids [3]; dose 2.00 uM)?
A: 0.405

Q: And the Z.CTG (ENR+CD organoids [3]; dose 10.00 uM)?
A: −0.398

Q: N#CC[C@H](C1CCCC1)n1cc(-c2ncnc3[nH]ccc23)cn1 [Ruxolitinib (INCB018424), Ruxolitinib, reference compound] was tested. Which Dose.FC.LYZ.NS ([1]; primary screen, dose 0.08 uM, FC relative to plate median) did it give?
A: 0.122 log2 fold change

Q: And the Z.LYZ.NS ([1]; primary screen, dose 0.08 uM, standard z score)?
A: 1.066

Q: What about the Dose.FC.LYZ.NS ([1]; primary screen, dose 0.40 uM, FC relative to plate median) of the same molecule?
A: 0.070 log2 fold change

Q: And the Z.LYZ.NS ([1]; primary screen, dose 0.40 uM, standard z score)?
A: 0.611

Q: And the Dose.FC.LYZ.NS ([1]; primary screen, dose 2.00 uM, FC relative to plate median)?
A: 0.110 log2 fold change

Q: What about the Z.LYZ.NS ([1]; primary screen, dose 2.00 uM, standard z score) of the same molecule?
A: 0.954

Q: And the Dose.FC.LYZ.NS ([1]; primary screen, dose 10.00 uM, FC relative to plate median)?
A: 0.295 log2 fold change

Q: What about the Z.LYZ.NS ([1]; primary screen, dose 10.00 uM, standard z score) of the same molecule?
A: 2.569

Q: And the Dose.FC.LYZ.S ([2]; dose 0.08 uM, FC relative to plate median)?
A: 0.150 log2 fold change

Q: What about the Dose.FC.LYZ.S ([2]; dose 0.40 uM, FC relative to plate median) of the same molecule?
A: 0.067 log2 fold change

Q: And the Dose.FC.LYZ.S ([2]; dose 2.00 uM, FC relative to plate median)?
A: 0.105 log2 fold change

Q: And the Dose.FC.LYZ.S ([2]; dose 10.00 uM, FC relative to plate median)?
A: 0.317 log2 fold change

Q: What about the Dose.FC.LYZ.NS ([4]; 2.50 uM) of the same molecule?
A: −0.157 log2 fold change

Q: What about the Dose.FC.LYZ.NS ([4]; 5.00 uM) of the same molecule?
A: −0.138 log2 fold change

Q: What about the Dose.FC.LYZ.NS ([4]; 10.00 uM) of the same molecule?
A: −0.084 log2 fold change

Q: What about the Dose.FC.LYZ.NS ([4]; 20.00 uM) of the same molecule?
A: 0.065 log2 fold change

Q: And the Dose.FC.LYZ.S ([5]; 2.50 uM)?
A: −0.182 log2 fold change

Q: What about the Dose.FC.LYZ.S ([5]; 5.00 uM) of the same molecule?
A: −0.217 log2 fold change

Q: And the Dose.FC.LYZ.S ([5]; 10.00 uM)?
A: −0.168 log2 fold change

Q: What about the Dose.FC.LYZ.S ([5]; 20.00 uM) of the same molecule?
A: 0.027 log2 fold change

Q: And the Dose.FC.CTG (ENR+CD organoids [6]; 2.50 uM)?
A: −0.014 log2 fold change

Q: What about the Dose.FC.CTG (ENR+CD organoids [6]; 5.00 uM) of the same molecule?
A: −0.224 log2 fold change

Q: And the Dose.FC.CTG (ENR+CD organoids [6]; 10.00 uM)?
A: −0.153 log2 fold change

Q: What about the Dose.FC.CTG (ENR+CD organoids [6]; 20.00 uM) of the same molecule?
A: 0.166 log2 fold change

Q: And the Dose.FC.CTG (ENR+CD organoids [7]; dose 0.08 uM)?
A: 0.458 log2 fold change

Q: What about the Dose.FC.CTG (ENR+CD organoids [7]; dose 0.40 uM) of the same molecule?
A: 0.363 log2 fold change

Q: What about the Dose.FC.CTG (ENR+CD organoids [7]; dose 2.00 uM) of the same molecule?
A: 0.445 log2 fold change

Q: What about the Dose.FC.CTG (ENR+CD organoids [7]; dose 10.00 uM) of the same molecule?
A: 0.477 log2 fold change
